Source: patent US10259808B2 (Genentech, Inc., priority 2015, dated 2019)
Structures can show the parent of a compound that is named as a salt.

Target: T1, RORc ligand binding domain (Homo sapiens, UniProt P51449)
T1 sequence (P51449 269-508 limits assumed): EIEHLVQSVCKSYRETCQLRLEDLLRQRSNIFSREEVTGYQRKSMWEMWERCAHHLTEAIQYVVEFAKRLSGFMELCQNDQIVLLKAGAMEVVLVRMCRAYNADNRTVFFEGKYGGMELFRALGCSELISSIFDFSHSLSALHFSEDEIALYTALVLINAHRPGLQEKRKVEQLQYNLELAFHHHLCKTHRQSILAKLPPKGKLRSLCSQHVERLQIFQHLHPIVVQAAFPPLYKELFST
Experiment: In vitro RORc ligand binding assay (25-[3H]hydroxycholesterol displacement)
Procedure: This assay was used to determine a compound's potency in inhibiting activity of RORc by determining, Kiapp, IC50, or percent inhibition values.
On day of the assay, 100 uL of 0.05% CHAPS (in deionized H2O) was added to all wells of the GFB Unifilter plate and allowed soak for 1 h. A wash buffer of 50 mM HEPES (pH 7.4), 150 mM NaCl, and 5 mM MgCl2 was prepared to wash the filter plate. To prepare an assay buffer, BSA was added to the wash buffer to reach 0.01% and DTT was added to reach 1 mM.
The 20× compound stocks were diluted in DMSO with Assay Buffer 4-fold to reach 5× the final test concentration in 25% DMSO (10 uL compound+30 uL Assay Buffer). Solutions were mixed by aspiration several times with a pipette set on 50 uL volume.
For two point screening, 10 mM stock compound solutions were diluted in DMSO to obtain 200 uM (20× the high test concentration) and then diluted 10-fold further to reach 20 uM (20× the low test concentration). The 20× stocks were diluted 4-fold with Assay Buffer (10 uL compound+30 uL Assay Buffer) to reach 5× the test concentrations (50 uM and 5 uM) and 10 uL were added to two assay plates for the duplicate wells. With each concentration tested on 2 plates, each set of 80 compounds used 4 assay plates (1 uM and 10 uM, with n=2).
Nonspecific Binding (NSB) Samples, Total Binding (TB) Samples and No Receptor (No R) Samples
For 25-hydroxycholesterol in 25% DMSO/75% Assay Buffer; 10 uL per well was used for NSB samples. Wells for Total Binding and No Receptor sample determination contained 10 uL of 25% DMSO/75% Assay Buffer per well.
Radioligand 25-[^3H]Hydroxycholesterol) Preparation
Add 20 uL to all wells to reach 6 nM final in the assay.
Stock receptor solution was diluted in assay buffer to obtain 1.5 ug/mL in Assay Buffer. 20 uL was added to all wells. For No R samples, 20 uL Assay Buffer was substituted for receptor solution.
Sample addition to Plates and Incubation
Assay plates were 96-well polypropylene V-bottom plates. […] 10 uL of 25% DMSO/75% Assay Buffer was added to Total Binding or No Receptor wells. 10 uL of 5 uM 25-hydroxycholesterol in 25% DMSO/75% Assay Buffer was added to NSB wells. […] 20 uL of 1.5 ug/mL RORc receptor was added to wells (or 40 uL Assay Buffer to No R wells). Following addition to the wells, the plates were incubated 3 h at 25° C.
Using a Packard Filtermate Harvester, the filter plate were washed 4 times following transfer of the incubated samples. Plates were dry-filtered completely (2 h at 50° C. or overnight at room temperature). 50 uL Microscint 0 was added to all wells and read on Topcount protocol Inverted.
Final concentrations were as follows: 50 mM HEPES buffer (pH 7.4); 150 mM NaCl; 1 mM DTT; 5 mM MgCl2; 0.01% BSA; 5% DMSO; 0.6 ug/mL RORc receptor; 6 nM 25-[^3H]hydroxycholesterol. For NSB wells, 1 uM 25-hydroxycholesterol was also present.

| Compound | IC50 [nM] |
| --- | --- |
| C[C@H]1CC[C@H](c2ccccc2)S(=O)(=O)N1Cc1cc(F)c(C2(c3nnc(N)o3)CCOCC2)cc1F [Example 61, 5-[4-[2,5-difluoro-4-[[(3S,6R)-3-methyl-1,1-dioxo-6-phenyl-thiazinan-2-yl]methyl]phenyl]tetrahydropyran-4-yl]-1,3,4-oxadiazol-2-amine] | 19.2 |
| C[C@H]1CC[C@H](c2ccccc2)S(=O)(=O)N1Cc1ccc(C2(NCc3cnc[nH]3)CCOCC2)cc1F [Example 62, 4-[3-fluoro-4-[[(3S,6R)-3-methyl-1,1-dioxo-6-phenyl-thiazinan-2-yl]methyl]phenyl]-N-(1H-imidazol-5-ylmethyl)tetrahydropyran-4-amine] | 20.5 |
| C[C@H]1CC[C@H](c2ccccc2)S(=O)(=O)N1Cc1ccc(C2(NCc3cc[nH]n3)CCOCC2)cc1F [Example 63, 4-[3-fluoro-4-[[(3S,6R)-3-methyl-1,1-dioxo-6-phenyl-thiazinan-2-yl]methyl]phenyl]-N-(1H-pyrazol-3-ylmethyl)tetrahydropyran-4-amine] | 6.7 |
| C[C@H]1CC[C@H](c2ccccc2)S(=O)(=O)N1Cc1ccc(C2(NCc3ncc[nH]3)CCOCC2)cc1F [Example 64, 4-[3-fluoro-4-[[(3S,6R)-3-methyl-1,1-dioxo-6-phenyl-thiazinan-2-yl]methyl]phenyl]-N-(1H-imidazol-2-ylmethyl)tetrahydropyran-4-amine] | 10.1 |
| C[C@H]1CC[C@H](c2ccccc2)S(=O)(=O)N1Cc1ccc(C2(NCc3cocn3)CCOCC2)cc1F [Example 65, 4-[3-fluoro-4-[[(3S,6R)-3-methyl-1,1-dioxo-6-phenyl-thiazinan-2-yl]methyl]phenyl]-N-(oxazol-4-ylmethyl)tetrahydropyran-4-amine] | 3.6 |
| C[C@H]1CC[C@H](c2ccccc2)S(=O)(=O)N1Cc1ccc(C2(NCc3cnccn3)CCOCC2)cc1F [Example 66, 4-[3-fluoro-4-[[(3S,6R)-3-methyl-1,1-dioxo-6-phenyl-thiazinan-2-yl]methyl]phenyl]-N-(pyrazin-2-ylmethyl)tetrahydropyran-4-amine] | 6.6 |
| C[C@H]1CC[C@H](c2ccccc2)S(=O)(=O)N1Cc1ccc(C2(NCc3ncccn3)CCOCC2)cc1F [Example 67, 4-[3-fluoro-4-[[(3S,6R)-3-methyl-1,1-dioxo-6-phenyl-thiazinan-2-yl]methyl]phenyl]-N-(pyrimidin-2-ylmethyl)tetrahydropyran-4-amine] | 9.3 |
| C[C@H]1CC[C@H](c2ccccc2)S(=O)(=O)N1Cc1ccc(C2(NCc3ccc(=O)[nH]c3)CCOCC2)cc1F [Example 68, 5-[[[4-[3-fluoro-4-[[(3S,6R)-3-methyl-1,1-dioxo-6-phenyl-thiazinan-2-yl]methyl]phenyl]tetrahydropyran-4-yl]amino]methyl]-1H-pyridin-2-one] | 38.9 |
| C[C@H]1CC[C@H](c2ccccc2)S(=O)(=O)N1Cc1ccc(C2(N3C=NC(=O)/C3=C\O)CCOCC2)cc1F [Example 69, (5E)-1-[4-[3-fluoro-4-[[(3S,6R)-3-methyl-1,1-dioxo-6-phenyl-thiazinan-2-yl]methyl]phenyl]tetrahydropyran-4-yl]-5-(hydroxymethylene)imidazol-4-one] | 83.3 |
| C[C@H]1CC[C@H](c2ccccc2)S(=O)(=O)N1Cc1ccc(C2(n3cn[nH]c3=O)CCOCC2)cc1F [Example 70, 4-[4-[3-fluoro-4-[[(3S,6R)-3-methyl-1,1-dioxo-6-phenyl-thiazinan-2-yl]methyl]phenyl]tetrahydropyran-4-yl]-1H-1,2,4-triazol-5-one] | 113 |
| C[C@H]1CC[C@H](c2ccccc2)S(=O)(=O)N1Cc1ccc(C2(NCc3ncco3)CCOCC2)cc1F [Example 71, 4-[3-fluoro-4-[[(3S,6R)-3-methyl-1,1-dioxo-6-phenyl-thiazinan-2-yl]methyl]phenyl]-N-(oxazol-2-ylmethyl)tetrahydropyran-4-amine] | 2.5 |
| C[C@H]1CC[C@H](c2ccccc2)S(=O)(=O)N1Cc1ccc(C2(NCc3cc[nH]c(=O)c3)CCOCC2)cc1F [Example 72, 4-[[[4-[3-fluoro-4-[[(3S,6R)-3-methyl-1,1-dioxo-6-phenyl-thiazinan-2-yl]methyl]phenyl]tetrahydropyran-4-yl]amino]methyl]-1H-pyridin-2-one] | 10.6 |
| C[C@H]1CC[C@H](c2ccccc2)S(=O)(=O)N1Cc1cc(F)c(C2(NCc3ccn[nH]3)CCOCC2)cc1F [Example 73, 4-[2,5-difluoro-4-[[(3S,6R)-3-methyl-1,1-dioxo-6-phenyl-thiazinan-2-yl]methyl]phenyl]-N-(1H-pyrazol-5-ylmethyl)tetrahydropyran-4-amine] | 2.9 |
| C[C@H]1CC[C@H](c2ccccc2)S(=O)(=O)N1Cc1cc(F)c(C2(c3nc(CO)co3)CCOCC2)cc1F [Example 74, [2-[4-[2,5-difluoro-4-[[(3S,6R)-3-methyl-1,1-dioxo-6-phenyl-thiazinan-2-yl]methyl]phenyl]tetrahydropyran-4-yl]oxazol-4-yl]methanol] | 12.8 |
| C[C@H]1CC[C@H](c2ccccc2)S(=O)(=O)N1Cc1cc(F)c(C2(NCc3cocn3)CCOCC2)cc1F [Example 75, 4-[2,5-difluoro-4-[[(3S,6R)-3-methyl-1,1-dioxo-6-phenyl-thiazinan-2-yl]methyl]phenyl]-N-(oxazol-4-ylmethyl)tetrahydropyran-4-amine] | 6.4 |
| Cc1cc(CNC2(c3ccc(CN4[C@@H](C)CC[C@H](c5ccccc5)S4(=O)=O)c(F)c3)CCOCC2)no1 [Example 76, 4-[3-fluoro-4-[[(3S,6R)-3-methyl-1,1-dioxo-6-phenyl-thiazinan-2-yl]methyl]phenyl]-N-[(5-methylisoxazol-3-yl)methyl]tetrahydropyran-4-amine] | 4.6 |
| C[C@H]1CC[C@H](c2ccccc2)S(=O)(=O)N1Cc1ccc(C2(NCc3ccc[nH]c3=O)CCOCC2)cc1F [Example 77, 3-[[[4-[3-fluoro-4-[[(3S,6R)-3-methyl-1,1-dioxo-6-phenyl-thiazinan-2-yl]methyl]phenyl]tetrahydropyran-4-yl]amino]methyl]-1H-pyridin-2-one] | 87.2 |
| Cc1nc(CNC2(c3ccc(CN4[C@@H](C)CC[C@H](c5ccccc5)S4(=O)=O)c(F)c3)CCOCC2)co1 [Example 78, 4-[3-fluoro-4-[[(3S,6R)-3-methyl-1,1-dioxo-6-phenyl-thiazinan-2-yl]methyl]phenyl]-N-[(2-methyloxazol-4-yl)methyl]tetrahydropyran-4-amine; hydrochloride] | 30.2 |
| C[C@H]1CC[C@H](c2ccccc2)S(=O)(=O)N1Cc1ccc(C2(N(C)Cc3nnc[nH]3)CCOCC2)cc1F [Example 79, 4-[3-fluoro-4-[[(3S,6R)-3-methyl-1,1-dioxo-6-phenyl-thiazinan-2-yl]methyl]phenyl]-N-methyl-N-(4H-1,2,4-triazol-3-ylmethyl)tetrahydropyran-4-amine] | 77.1 |
| C[C@H]1CC[C@H](c2ccccc2)S(=O)(=O)N1Cc1cc(F)c(C2(NC(=O)c3cocn3)CCOCC2)cc1F [Example 80, N-[4-[2,5-difluoro-4-[[(3S,6R)-3-methyl-1,1-dioxo-6-phenyl-thiazinan-2-yl]methyl]phenyl]tetrahydropyran-4-yl]oxazole-4-carboxamide] | 4.8 |
| C[C@H]1CC[C@H](c2ccccc2)S(=O)(=O)N1Cc1cc(F)c(C2(N(C)Cc3cocn3)CCOCC2)cc1F [Example 81, 4-[2,5-difluoro-4-[[(3S,6R)-3-methyl-1,1-dioxo-6-phenyl-thiazinan-2-yl]methyl]phenyl]-N-methyl-N-(oxazol-4-ylmethyl)tetrahydropyran-4-amine] | 8.8 |
| C[C@H]1CC[C@H](c2ccccc2)S(=O)(=O)N1Cc1cc(F)c(C2(NCc3cc(=O)[nH]o3)CCOCC2)cc1F [Example 82, 5-[[[4-[2,5-difluoro-4-[[(3S,6R)-3-methyl-1,1-dioxo-6-phenyl-thiazinan-2-yl]methyl]phenyl]tetrahydropyran-4-yl]amino]methyl]isoxazol-3-one] | 5.7 |
| C[C@H]1CC[C@H](c2ccccc2)S(=O)(=O)N1Cc1cc(F)c(C2(NCc3ncco3)CCOCC2)cc1F [Example 83, 4-[2,5-difluoro-4-[[(3S,6R)-3-methyl-1,1-dioxo-6-phenyl-thiazinan-2-yl]methyl]phenyl]-N-(oxazol-2-ylmethyl)tetrahydropyran-4-amine] | 3.7 |
| C[C@H]1CC[C@H](c2ccccc2)S(=O)(=O)N1Cc1cc(F)c(C2(NCc3cc[nH]n3)COC2)cc1F [Example 84, 3-[2,5-difluoro-4-[[(3S,6R)-3-methyl-1,1-dioxo-6-phenyl-thiazinan-2-yl]methyl]phenyl]-N-(1H-pyrazol-3-ylmethyl)oxetan-3-amine] | 5.7 |
| C[C@H]1CC[C@H](c2ccccc2)S(=O)(=O)N1Cc1cc(F)c(C2(NCc3cocn3)COC2)cc1F [Example 85, 3-[2,5-difluoro-4-[[(3S,6R)-3-methyl-1,1-dioxo-6-phenyl-thiazinan-2-yl]methyl]phenyl]-N-(oxazol-4-ylmethyl)oxetan-3-amine] | 4.1 |
| Cc1cc(CNC2(c3cc(F)c(CN4[C@@H](C)CC[C@H](c5ccccc5)S4(=O)=O)cc3F)CCOCC2)no1 [Example 86, 4-[2,5-difluoro-4-[[(3S,6R)-3-methyl-1,1-dioxo-6-phenyl-thiazinan-2-yl]methyl]phenyl]-N-[(5-methylisoxazol-3-yl)methyl]tetrahydropyran-4-amine] | 5 |
| C[C@H]1CC[C@H](c2ccccc2)S(=O)(=O)N1Cc1cc(F)c(C2(NCc3ncnn3C)COC2)cc1F [Example 87, 3-[2,5-difluoro-4-[[(3S,6R)-3-methyl-1,1-dioxo-6-phenyl-thiazinan-2-yl]methyl]phenyl]-N-[(2-methyl-1,2,4-triazol-3-yl)methyl]oxetan-3-amine] | 8 |
| C[C@H]1CC[C@H](c2ccccc2)S(=O)(=O)N1Cc1cc(F)c(C2(NCc3ncco3)COC2)cc1F [Example 88, 3-[2,5-difluoro-4-[[(3S,6R)-3-methyl-1,1-dioxo-6-phenyl-thiazinan-2-yl]methyl]phenyl]-N-(oxazol-2-ylmethyl)oxetan-3-amine] | 8.2 |
